The results in this text go back to PubChem BioAssay AID1329 (NMMLSC, 2008).

In this assay the target is Induced myeloid leukemia cell differentiation protein Mcl-1 (Homo sapiens) (UniProt Q07820). In words: Mcl-1/Bim interaction regulators – biochemical, bead-based flow cytometry, multiplexed, human, dose response (AID 1329). The note with it: Bim peptide-Mcl-1 binding, MCF. In general terms: Flow cytometry measures light scatter and fluorescence of single cells or particles in a stream.

The source made the active and inactive calls. The rule behind the calls is not given here.

Sequence of Induced myeloid leukemia cell differentiation protein Mcl-1 (Homo sapiens) (Q07820 whole entry, looked up): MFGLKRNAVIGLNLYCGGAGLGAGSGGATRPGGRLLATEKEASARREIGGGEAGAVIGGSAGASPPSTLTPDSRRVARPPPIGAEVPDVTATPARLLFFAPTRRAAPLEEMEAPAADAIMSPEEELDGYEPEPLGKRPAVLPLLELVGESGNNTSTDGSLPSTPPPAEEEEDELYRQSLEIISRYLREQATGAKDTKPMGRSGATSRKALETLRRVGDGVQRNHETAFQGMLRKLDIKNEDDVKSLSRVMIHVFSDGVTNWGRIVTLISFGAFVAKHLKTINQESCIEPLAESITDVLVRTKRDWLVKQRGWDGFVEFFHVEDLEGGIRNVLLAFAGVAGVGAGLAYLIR

On to `O=C(C[n+]1ccc(-c2nnc3n2CCC3)cc1)c1ccc(Cl)cc1`, for which the percent span entry is “inactive”. With `O=C(c1ccc(CNS(=O)(=O)c2ccc(Br)cc2)cc1)N1CCCC1`, the percent span entry is “inactive”.

Regarding `C/C(=N\NC(=O)COc1ccc(C#N)cc1)c1ccccc1OC(F)F`, the percent span result is “inactive”.

For `CNC(=O)/C(C#N)=C/c1c(N(Cc2ccccc2)Cc2ccccc2)nc2c(C)cccn2c1=O`, the percent span entry was “inactive”.

Take `COc1ccc(-c2nnc(SCC(=O)Nc3nc4ccccc4s3)n2C)cc1`: the percent span entry is “inactive”.

As for `Cc1ccc(C)c(NC(=O)C(=O)NCc2ccccn2)c1`, the percent span entry was “inactive”. In the case of `COc1cc(C=Nc2cccc(C)c2)c(O)c([N+](=O)[O-])c1` it was “inactive”; in that of `Cc1ccc(C)c(N2CCN(C(=S)Nc3ccc4nc(N5CCN(C)CC5)cc(C)c4c3)CC2)c1`, “inactive”; in that of `CN(C)c1ccc(C=C2C(=O)NC(=O)NC2=O)cc1[N+](=O)[O-]`, “inactive”. Consider `COc1ccc(CCNC(=O)c2cc(-c3ccccn3)nc3c(Cl)cccc23)cc1OC`, for which the percent span entry is “inactive”. For `COc1ccc(NC(=O)COc2ncnc3ccccc23)cc1S(=O)(=O)N1CCOCC1`, the percent span result was “inactive”. For the compound `Cc1cc(-c2csc(N)n2)c(C)n1CCc1ccccc1`, the percent span result was “inactive”. For `Cc1ccc(OCc2cn3cccnc3n2)cc1`, the percent span entry was “inactive”. As for `O=[N+]([O-])c1ccc(N2CCN(c3ccc(O)cc3)CC2)c(Cl)c1`, the percent span entry is “inactive”. Consider `Clc1nssc1=Nc1ccc(Br)cc1`, for which the percent span entry is “inactive”. `COc1ccc(N2CCN(CCCNC(=O)CCCn3c(=O)[nH]c4ccsc4c3=O)CC2)cc1`: the percent span result is “inactive”. Consider `COc1ccccc1-n1c(SCC(=O)N2CCc3ccccc32)nc2c(c1=O)SCC2`, for which the percent span entry is “inactive”. In the case of `O=C(OCC(=O)c1ccc[nH]1)c1ccccc1` it was “inactive”; in that of `CC1=CC(=O)c2c(O)ccc(O)c2C1=O`, “inactive”. Turning to `CCc1cccc(CC)c1NC(=S)N1CCn2cccc2C1c1cccnc1` (configuration not stated), the percent span result was “inactive”. With `CCN(CC)c1ccc(-c2nn3c(-c4n[nH]c5c4CCC5)nnc3s2)cc1`, the percent span result is “inactive”. For `CN(CC(=O)O/N=C(\N)c1ccc([N+](=O)[O-])cc1)S(=O)(=O)c1ccccc1`, the percent span result was “inactive”. With `Cc1ccc(-n2c(CSc3nc(C)cc(C)n3)nnc2SCC(=O)NCc2ccco2)cc1`, the percent span result is “inactive”.

On to `Cc1ccc(NC2=C(NC(=O)c3ccccc3)C(=O)c3ccccc3C2=O)cc1Cl`, for which the percent span entry was “inactive”. For the compound `Cc1cccc(N2C(S)=C(C#N)C(=O)NC2c2cccs2)c1` (configuration not stated), the percent span entry is “inactive”.

`O=C(Nc1ccc(Cl)cn1)Nc1ccccc1F`: the percent span entry is “inactive”. The entry for `O=C(Nc1nccs1)c1ccc(COc2ccc(F)cc2)o1` is “inactive”; for `O=C(c1cnccn1)N1CCN(c2ccccc2F)CC1` it is “inactive”.

For the compound `O=C(Nc1ccccc1)Nc1ccc2ncoc2c1`, the percent span entry is “inactive”. Take `O=C(OCc1cnc(Cl)s1)c1cccc(Cl)c1Cl`: the percent span result was “inactive”. Consider `CCOc1cc(CNc2ccc(N(C)C)cc2)cc(Br)c1OCC(=O)NC(C)(C)C`, for which the percent span entry is “inactive”. In the case of `CCOc1cc(NC(=S)NC)c(OCC)cc1NC(=O)c1ccc(OC)cc1` it was “inactive”; in that of `COc1ccc(NC(=O)C2=C(C)NC(=O)NC2c2cccc(OC)c2OC)c(OC)c1` (configuration not stated), “inactive”.

Regarding `CC(C)C(=O)N1CCN(c2ccc([N+](=O)[O-])cc2Cl)CC1`, the percent span entry is “inactive”. On to `O=C(C1=NN[C@@H]2C(=O)N(c3ccccc3C(F)(F)F)C(=O)[C@H]12)c1ccc2ccccc2n1`, for which the percent span result is “inactive”. In the case of `CCOC(=O)/C(=C\c1cccc(O)c1)c1nc2sc(C)c(C)c2c(=O)[nH]1` it was “inactive”. For `COCCn1nnnc1CN(Cc1ccco1)Cc1cc2cc3c(cc2[nH]c1=O)OCO3`, the percent span entry is “inactive”. In the case of `C/C(=N\NC(=O)COc1ccc(C(C)(C)C)cc1)c1ccc2c(c1)OCCO2` it was “inactive”. The entry for `CCOC(=O)c1nc(Nc2ccc(N3CCC(C)CC3)cc2)c2ccccc2n1` is “inactive”.

For `CCOC(=O)c1[nH]cnc1C(=O)NC(C)C`, the percent span result is “inactive”. Take `CS(=O)(=O)NN1C(=O)c2ccccc2NC1c1ccccc1` (configuration not stated): the percent span entry was “inactive”. As to `Clc1ccc2c(N/N=C/c3cccc(Br)c3)ccnc2c1`, the percent span result was “inactive”.

On to `CCOC(=O)CCCNC(=O)c1cncc(O)c1`, for which the percent span entry is “inactive”. For the compound `COc1ccc(N2C(=O)/C(=C/c3cccs3)NC2=S)cc1`, the percent span entry was “inactive”. In the case of `Cc1csc(SCCn2c(N3CCN(c4ccccc4)CC3)nc3c2c(=O)[nH]c(=O)n3C)n1` it was “inactive”; in that of `CC1=CC(=O)c2ccccc2C1=O`, “inactive”; in that of `O=C1NC(=O)C(=Cc2ccc(-c3cc(Cl)ccc3[N+](=O)[O-])o2)C(=O)N1`, “inactive”.

Turning to `S=C(Nc1ccc(N2CCOCC2)cc1)Nc1ccc2nc(-c3ccco3)c(-c3ccco3)nc2c1`, the percent span entry was “inactive”.

Turning to `Cc1ccc(-c2cc(-c3ccc(Cl)cc3)c(C#N)c(N)n2)o1`, the percent span result was “inactive”. In the case of `COc1ccc(OC)c(NC(=O)COC(=O)c2cc3c(s2)CCC3)c1` it was “inactive”; in that of `CN1CCS/C1=C/C=C1/SC(=S)N(Cc2ccccc2)C1=O`, “inactive”; in that of `CSc1ccccc1NC(=O)CN(C)CC(=O)Nc1ccc(N2CCOCC2)cc1`, “inactive”.

For the compound `CC(C(=O)Nc1cc([N+](=O)[O-])ccc1Cl)N1CCN(c2ccc(O)cc2)CC1` (configuration not stated), the percent span entry was “inactive”. In the case of `COc1cc(C2Nc3cccc4cccc(c34)N2)ccc1OC(C)=O` it was “inactive”; in that of `COC(=O)c1[nH]c2ccccc2c1NC(=O)c1ccccc1[N+](=O)[O-]`, “inactive”; in that of `COc1ccc(NC(=O)c2sccc2SCc2cccc(C(F)(F)F)c2)cc1`, “inactive”. In the case of `COc1ccc(OC)c(Nc2ccc(C(=O)O)cc2[N+](=O)[O-])c1`, the percent span result was “inactive”. For the compound `CCc1cccc(CC)c1-n1c(-c2cccnc2)n[nH]c1=S`, the percent span entry was “inactive”. Consider `COc1ccccc1-n1c(-c2ccccc2)c[nH]c1=S`, for which the percent span result was “inactive”. As to `Cc1cc(NC(=O)CCCC(=O)NCc2ccccc2)no1`, the percent span entry was “inactive”. In the case of `Cc1ccc(SCCC(=O)Nc2ccc(Br)c(C)c2)cc1`, the percent span result is “inactive”. Regarding `O=C(c1cnccn1)N(Cc1cccs1)C1(C(=O)NC2CCCCC2)CCCCC1`, the percent span entry is “inactive”. On to `O=C(Cn1cncc1-c1ccc([N+](=O)[O-])cc1)Nc1ccccc1F`, for which the percent span entry is “inactive”.

In the case of `Cc1nc(=S)c2ccccc2[nH]1`, the percent span result is “inactive”.

As to `Oc1ccc(C=NCC2COc3ccccc3O2)cc1` (configuration not stated), the percent span entry was “inactive”. For the compound `Nc1ccc(Nc2nc(-c3ccncc3)cs2)cc1`, the percent span result is “inactive”. The entry for `CCOC(=O)CSC1=NC(=O)/C(=C/c2ccc(Br)cc2)S1` is “inactive”; for `CN(C)c1cccc(NC(=O)C2(C)CC2(Cl)Cl)c1` (configuration not stated) it is “inactive”; for `Cc1nc2ccccc2n1CSc1ccccc1` it is “inactive”. In the case of `CCOc1ccc(N2C(=O)C(Cl)=C(Nc3ccccc3O)C2=O)cc1`, the percent span result is “inactive”. As to `Cc1ccc(-n2[nH]c(C)c(/C=N/Nc3ccc([N+](=O)[O-])cc3[N+](=O)[O-])c2=O)cc1C`, the percent span entry was “inactive”. Take `COc1ccc(OCCNC(=O)c2ccccc2OCC(=O)N2CCCCC2)cc1`: the percent span result is “inactive”. For the compound `CCC(=O)NC(c1ccc(C)cc1)c1cc([N+](=O)[O-])c2cccnc2c1O` (configuration not stated), the percent span entry was “inactive”. Take `Fc1ccccc1-n1cc(-c2ccccc2)[nH]c1=S`: the percent span entry is “inactive”. On to `COc1ccc(CC(=O)Nc2ccc(-c3nc4cc(C)ccc4o3)c(O)c2)cc1OC`, for which the percent span result is “inactive”.

With `CCN(CC)c1ccc(-c2nn3c(-c4cccnc4)nnc3s2)cc1`, the percent span entry is “inactive”. In the case of `OC(COc1ccc2ccccc2c1)CN1CCCC1` (configuration not stated), the percent span result is “inactive”. In the case of `COc1ccccc1-n1c(-c2ccc(Cl)cc2)c[nH]c1=S`, the percent span entry was “inactive”. Regarding `COC(=O)CSc1nccc(-c2cccs2)n1`, the percent span result was “inactive”. `Cc1cc(/C=C(/C#N)C(=O)Nc2ccc(Cl)cc2)c(C)n1-c1cccnc1`: the percent span result is “inactive”. With `Cc1ccc(NS(=O)(=O)c2cc(NC(=O)c3ccc4c(c3)NC(=O)CS4)ccc2C)c(C)c1`, the percent span entry was “inactive”. On to `Cc1cc(N)ccc1N1CCCC1`, for which the percent span result was “inactive”. Take `CCC(=O)N(CC)C1=C(O)c2ccccc2C(=O)C1=O`: the percent span result is “inactive”. Regarding `CC1=NN(c2ccc(C)cc2)C(=O)/C1=C\c1ccc(Br)s1`, the percent span result is “inactive”. With `CCn1c(SCC(=O)Nc2ccccc2-c2ccccc2)nnc1-c1ccoc1C`, the percent span entry was “inactive”. In the case of `CCCCc1ccc(NC(=S)NCc2ccc(OC)cc2)cc1` it was “inactive”; in that of `Cc1ccc2cc(C)c(Sc3nnnn3-c3ccccc3)nc2c1`, “inactive”; in that of `COC(=O)c1sc(NC(=O)c2ccc(Cn3cc(Cl)cn3)o2)c(C#N)c1C`, “inactive”.

`CC(C)NS(=O)(=O)c1ccc(OCC(=O)Nc2ccc(F)cc2)cc1`: the percent span entry is “inactive”. Turning to `Cc1cc(C(=O)NCCCN(C)C)c2ccccc2n1`, the percent span result is “inactive”.

`COc1ccc(N2CCN(C(CNS(=O)(=O)c3ccc4c(c3)OCCO4)c3ccco3)CC2)cc1` (configuration not stated): the percent span entry is “inactive”. With `COc1cc(NC(=O)c2ccc3c(c2)OCO3)ccc1NC(=O)c1ccco1`, the percent span entry was “inactive”.
